# Tested on: immature embryos of modified morning glory "aosakaikaryuubaseisaisakibotan"
# Assay: Embryoid body induction from cultured immature embryos with different phytohormones
# Format: cell-based, Ipomoea nil
# Conditions: immature embryos cultured as in Example 1A (MS medium, 60 g/l sucrose, 25° C., 2000 lux; NAA 3 mg/l), phytohormone varied
# Protocol: Immature embryos were obtained from a parent tree of modified morning glory “aosakaikaryuubaseisaisakibotan”. Each individual immature embryo was separately cultured on an MS medium containing 3 mg/l of NAA and 60 g/l of sucrose at 25° C. under 2000 lux, to thereby obtain an embryoid body from the immature embryo. Each embryoid body obtained from different immature embryo was separately cultured as a discrete strain. Subculturing was repeated using the same medium at an interval of 4 weeks.
# In substantially the same manner as in Example 1A, immature embryos were cultured except that phytohormone other than NAA, such as 4-fluorophenoxyacetic acid, 2,4-dichlorophenoxyacetic acid and picloram were used. As is apparent from a result shown in Table 4, in the case of phytohormone other than NAA, no embryoid bodies were produced, and thus mass proliferation was not attained.
row,Compound,Number of embryoid bodies formed per immature embryo
1,"Nc1c(Cl)c(Cl)nc(C(=O)O)c1Cl [Picloram, picloram]",0
2,"O=C(O)COc1ccc(Cl)cc1Cl [2,4-dichlorophenoxyacetic acid]",0
3,O=C(O)Cc1cccc2ccccc12 [NAA],10
4,O=C(O)COc1ccc(F)cc1 [4-fluorophenoxyacetic acid],0
